Values quoted from earlier work as cited in patent US6737381B1, “Phytosanitary composition comprising at least a water soluble agent and a modified oil” (Institut National de la Recherche Agronomique, priority 1999, dated 2004).

Details: hydrophilic herbicide

O=C(O)CNCP(=O)(O)O [glyphosate, N-(phosphonomethyl)glycine]
log P: < −3.4
